Results published in ChEMBL document CHEMBL3988442, “University of Dundee, Small-Polar-MMV Screening Library” (2021).
“And” between values parts separate entries of the source, which are not always exact repeats. Equal entries are not always repeated.

Columns and labels:
Plasmodium falciparum = assay: Plasmodium falciparum sporozoite viability assay; type: functional, organism-based; conditions: for IC50: Plasmodium falciparum
[1] = Trypanosoma cruzi proteasome luciferase counter-screen; type: functional, N/A
Proteasome subunit beta = target: T1, Proteasome subunit beta (Trypanosoma cruzi, UniProt O96673); assay: Trypanosoma cruzi proteasome chymotrypsin-like activity (TcProtChymo) assay.; type: functional
T1 sequence (O96673 whole entry): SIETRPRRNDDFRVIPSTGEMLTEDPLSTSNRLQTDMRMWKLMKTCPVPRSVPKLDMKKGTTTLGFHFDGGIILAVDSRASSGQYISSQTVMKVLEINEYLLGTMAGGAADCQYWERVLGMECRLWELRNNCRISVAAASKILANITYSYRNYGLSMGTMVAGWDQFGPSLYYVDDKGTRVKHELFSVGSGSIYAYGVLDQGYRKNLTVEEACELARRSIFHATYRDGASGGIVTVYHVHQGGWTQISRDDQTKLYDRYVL

[2] = target: T2, Arginase-2, mitochondrial (Homo sapiens, UniProt P78540); assay: in vitro enzyme assay to detect the production of urea directly proportional to the activity of Arginase II; type: functional
T2 sequence (P78540 whole entry): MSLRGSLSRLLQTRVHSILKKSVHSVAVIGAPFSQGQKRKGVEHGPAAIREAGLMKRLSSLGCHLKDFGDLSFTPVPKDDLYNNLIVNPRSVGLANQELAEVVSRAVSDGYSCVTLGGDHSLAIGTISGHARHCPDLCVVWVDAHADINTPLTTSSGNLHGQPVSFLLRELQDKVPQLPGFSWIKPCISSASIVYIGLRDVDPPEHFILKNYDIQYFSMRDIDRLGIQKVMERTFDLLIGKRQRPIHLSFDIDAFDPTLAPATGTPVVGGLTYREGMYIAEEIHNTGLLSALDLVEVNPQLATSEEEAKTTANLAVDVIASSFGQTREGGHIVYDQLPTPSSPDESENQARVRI

Histidine--tRNA ligase = target: T3, Histidine--tRNA ligase (Leishmania infantum, UniProt A4I591); assay: Leishmania infantum Histidine tRNA synthetase (LdHisRS); type: functional
T3 sequence (A4I591 whole entry): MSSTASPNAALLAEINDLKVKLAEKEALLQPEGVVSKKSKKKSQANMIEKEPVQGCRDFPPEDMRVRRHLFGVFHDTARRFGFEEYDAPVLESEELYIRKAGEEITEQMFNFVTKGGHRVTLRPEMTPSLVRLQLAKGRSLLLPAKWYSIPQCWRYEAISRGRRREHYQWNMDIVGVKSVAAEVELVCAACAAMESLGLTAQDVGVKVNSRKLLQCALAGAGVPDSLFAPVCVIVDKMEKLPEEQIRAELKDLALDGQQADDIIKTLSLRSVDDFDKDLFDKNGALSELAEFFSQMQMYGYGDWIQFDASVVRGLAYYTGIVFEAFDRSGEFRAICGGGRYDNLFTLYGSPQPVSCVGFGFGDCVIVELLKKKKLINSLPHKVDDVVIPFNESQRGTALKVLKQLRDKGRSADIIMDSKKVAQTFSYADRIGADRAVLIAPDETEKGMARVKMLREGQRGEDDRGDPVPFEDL

[3] = target: T4, Coenzyme A biosynthesis bifunctional protein CoaBC (Mycobacterium tuberculosis (strain ATCC 25618 / H37Rv), UniProt P9WNZ1); assay: Biomol Green assay for MtCoaBC inhibitor, OD650 read; type: functional
T4 sequence (P9WNZ1 whole entry): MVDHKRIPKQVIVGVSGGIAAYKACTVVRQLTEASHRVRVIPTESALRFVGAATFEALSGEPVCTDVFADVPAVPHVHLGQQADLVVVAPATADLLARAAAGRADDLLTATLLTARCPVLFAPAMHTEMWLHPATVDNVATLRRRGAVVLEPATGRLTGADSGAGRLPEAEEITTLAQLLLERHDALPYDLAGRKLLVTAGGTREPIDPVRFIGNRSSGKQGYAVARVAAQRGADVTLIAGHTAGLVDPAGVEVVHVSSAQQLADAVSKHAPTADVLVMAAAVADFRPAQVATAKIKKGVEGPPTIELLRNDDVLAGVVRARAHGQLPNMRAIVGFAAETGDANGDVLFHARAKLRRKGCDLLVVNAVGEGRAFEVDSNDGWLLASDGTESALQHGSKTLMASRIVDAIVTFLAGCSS

[4] = microbe, parasite or virus in culture; conditions: Mycobacterium tuberculosis, 72 h, read-out: pIC50 (converted)
[5] = microbe, parasite or virus in culture; conditions: Mycobacterium tuberculosis, 96 h, read-out: pIC50 (converted)
Schistosoma mansoni = assay: High throughput screening of compounds against Schistosoma mansoni motility; type: functional; parameters: dose or concentration left out as unconfirmed

With `CC(C)c1n[nH]c(C(=O)Nc2cc[nH]n2)c1Br` the pIC50 (Plasmodium falciparum) was 7.564, the IC50 (Plasmodium falciparum) was 18.6 nM and the pIC50 [1] was 4.666 and 4.69. The IC50 (Proteasome subunit beta) was 5.88 µM and 6.65 µM.

With `CCC(C(=O)NC)N(c1cccc(C)c1)S(C)(=O)=O` (stereo not given) the IC50 [2] was > 100 µM.

In the case of `CN1CCCC1c1ccc(C(=O)N2CCc3ccccc3C2)s1` (stereo not given), the pIC50 (Plasmodium falciparum) is reported as 6.857, the IC50 (Plasmodium falciparum) is reported as 121 nM and the pIC50 [1] is reported as 4.715 and 4.643. The IC50 (Proteasome subunit beta) was 10.3 µM and 8.37 µM.

For `CCn1c(NCc2ccco2)nc2c(C)nn(C)c2c1=O`, the IC50 [2] was > 100 µM.

For `Cc1ncsc1CCC(=O)N1CCCC[C@H](N(C)C)C1`, the IC50 [2] was > 100 µM.

For `COc1cccc([C@@H]2CN(C(=O)c3ccc(C)cc3O)C[C@H]2C(=O)O)c1`, the IC50 [2] was > 100 µM.

With `CN(Cc1ccccn1)C1COC2(CCN(Cc3cccnc3)CC2)C1` (stereo not given) the IC50 [2] was > 100 µM.

With `O=C(NCc1ccccn1)[C@]12COC[C@H]1CN(C1CCC1)C2` the IC50 [2] was > 100 µM.

In the case of `Cc1ccc(N(C)C2CCN(C(=O)CCc3ccco3)CC2)nn1`, the pIC50 [1] is reported as < 4, the IC50 (Histidine--tRNA ligase) is reported as 41.4 µM and 49.7 µM and the IC50 (Proteasome subunit beta) is reported as 12.8 µM and 16.7 µM. The IC50 [3] was > 30.2 µM.

In the case of `COc1ccc(-c2nc(CN3CC(n4cc(C)cn4)C3)no2)cc1`, the IC50 [4] is reported as 47 µM, the IC50 [5] is reported as 39.7 µM and the IC50 [2] is reported as > 100 µM.

With `CC1=Nc2c(c(=O)[nH]n2C2CCOCC2)C(c2cccc(Br)c2)S1` (stereo not given) the IC50 [2] was > 100 µM.

In the case of `CCN(C)c1ccc(C(=O)N(CCOC)Cc2ccccn2)cc1`, the IC50 [2] is reported as > 100 µM.

For `Cc1nc(NCC2CC2)nc2c1COCC21CCN(C)C1` (stereo not given), the IC50 [2] was > 100 µM.

In the case of `COc1cccc(CNCc2nnc3n2CC(C(F)(F)F)CC3)c1` (stereo not given), the IC50 [2] is reported as > 100 µM.

For `CS(=O)(=O)NCC(=O)N1CCCC1c1noc(C2CC2)n1` (stereo not given), the IC50 [2] was > 100 µM.

With `Cc1cnn(C2CN(CC(=O)NCc3ccccn3)C2)c1` the pIC50 [1] was < 4, the IC50 (Histidine--tRNA ligase) was > 100 µM and the IC50 (Proteasome subunit beta) was 14.9 µM and 19.7 µM. For the same compound, the IC50 [3] was > 30.2 µM.

For `CC(C)CN1CCC(NC(=O)c2ccc(F)cc2I)CC1`, the IC50 [2] was > 100 µM and the “Percent Effect” value (Schistosoma mansoni) was 28.14%.

For `CSc1ccccc1C(C(=O)O)N1CCN(Cc2ccccn2)CC1` (stereo not given), the IC50 [2] was > 100 µM.

In the case of `COCCN1C[C@@H]2CCCO[C@@H]2[C@H](N(C)Cc2ccco2)C1`, the IC50 [2] is reported as > 100 µM.

For `O=C(Cn1nc2c(cc1=O)CSCC2)NC(Cc1ccccc1)C(=O)O` (stereo not given), the IC50 [2] was > 100 µM.
